Data reported in patent US11331290B2, “Niclosamide for the treatment of cancer metastasis” (Max-Delbrück-Centrum für Molekulare Medizin in der …, priority 2011, dated 2022).

How the values were obtained:
Assay type in all cases: cell-based, human
[1] = tested on: HAB-92 wt cells; test: Boyden chamber transwell migration assay; conditions: 1 μM, 24 h, statistically not significant
Description: (§1) HCT116, SW620, LS174T, SW480 and DLD-1 cells were used in cell migration and invasion analysis performed with Boyden chamber assay. 400 μL containing 2.5×10^5 cells were seeded into each transwell chamber with filter membranes of 12.0 μm pore size (Millipore, Schwalbach, Germany). For invasion filter membranes were coated with 50 μL Matrigel (diluted 1:3 in RPMI-1640; BD Biosciences) 10 minutes before cells were seeded. Fresh medium (600 μL) were added to the bottom chamber and cells were allowed to attach to the insets for 15 hours. Both chambers were treated with 1 μM niclosamide or the respective amount of DMSO and incubated at 37° C. and 5% CO2 in a humidified incubator for 24 hours. Afterwards insets were removed and cells that had migrated through the membrane to the lower chamber were trypsinized and counted in a Neubauer chamber (LO-Laboroptik, Bad Homburg, Germany). Each well was counted ten times. Each migration or invasion experiment was performed in duplicate. The average number of migrated or invaded cells was determined for at least three independent experiments.
(§2) For WNT pathway analysis the following cells were applied: HCT116 cells (heterozygous for gain-of-function-mutated CTNNB1; wt/mut), HAB-68mut cells (deletion mutant of HCT116, expressing only gain-of-function-mutated CTNNB1: −/mut) and HAB-92 wt cells (deletion mutant of HCT116, expressing only wild-type CTNNB1: wt/−). (A) CTNNB1 genotype dependent effect of niclosamide on LEF/TCF transcription factor reporter gene expression. Cells were treated with 1 μM niclosamide for 24 hours. Reporter gene expression was determined by luciferase activity measurement. For each condition and cell line TOPflash expression was normalized to FOPflash expression. (B) CTNNB1 genotype dependent effect of niclosamide on S100A4 expression. Cells were treated with 1 μM niclosamide for 24 hours. S100A4 expression was analyzed by qRT-PCR and immunoblot. (C) CTNNB1 genotype dependent effect of niclosamide on migration rates. Cells were treated with 1 μM niclosamide for 24 hours and cell migration was determined by Boyden chamber assay. Data represents mean±SE of at least three independent experiments. Differences were analyzed by Student's t test (n.s.; not statistically significant). (D) Nuclear localization of CTNNB1 under niclosamide treatment. Nuclear extracts of HCT116 cells treated with the indicated concentrations of niclosamide for 18 hours were analyzed by immunoblot. (E) Effect of niclosamide on CTNNB1/TCF complex. Nuclear extracts of HCT116 cells treated with the indicated concentrations of niclosamide for 18 hours were analyzed by EMSA for the TCF-binding site of the S100A4 promoter. Supershift was performed by addition of a monoclonal anti-CTNNB1 antibody. […]

[2] = tested on: HAB-68mut cells; test: Boyden chamber transwell migration assay; conditions: 1 μM, 24 h
Description: as §1, §2

[3] = tested on: S100A4 promoter; test: High-throughput screening, S100A4 promoter-driven luciferase reporter; conditions: HCT116-S100A4p-LUC cells, 20-concentration rescreen, 2-fold dilutions from 100 μM, 24 h
Description: HCT116-S100A4p-LUC colon cancer cells stably expressing a human S100A4 promoter-driven luciferase reporter gene construct were screened with the Library of Pharmacologically Active Compounds (LOPAC; FIG. 1, A). The LOPAC Library represents a collection of 1280 well characterized small molecule inhibitors. […] In parallel, cell viability was determined using the Alamar blue assay to evaluate whether some of the inhibitory effects were caused by cytotoxicity (data not shown). […]
For high-throughput screening 2.5×10^3 cells per well of HCT116-S100A4p-LUC cells were seeded into white opaque 384-well plates (Perkin Elmer, Waltham, Mass.) using the BIOMEK 2000 automatic pipetting system (Beckman Coulter, Brea, Calif.). […] Following compound treatment, luciferase expression was determined using Britelite reagent (Perkin Elmer) in a Wallac Victor reader (Perkin Elmer). In parallel, cytotoxicity of the compounds was measured in clear polystyrene 384-well plates (Costar) by Alamar blue cytotoxicity assay (Sigma-Aldrich). […] Plates were then read on a Wallac Victor reader at an excitation wavelength of 530 nm and emission wavelength of 590 nm. For both luminescence and Alamar blue fluorescence data, eight vehicle control wells were averaged and test compound results (single well) expressed as percent of control. […]

O=C(Nc1ccc([N+](=O)[O-])cc1Cl)c1cc(Cl)ccc1O [niclosamide, 2′,5-dichloro-4′-nitrosalicylanilide]
migration rate, mean (relative to HCT116 control) ([1]; control 0.36): 0.32 | migration rate, mean difference control vs niclosamide [1]: 0.04 | migration rate, mean difference control vs niclosamide [2]: 0.91 | migration rate, mean (relative to HCT116 control) ([2]; control 1.30): 0.39 | inhibition of reporter gene expression [3]: strongest candidate
